In article PMC11884657, “Ru(II)-Fenamic-Based Complexes as Promising Human Ovarian Antitumor Agents: DNA Interaction, Cellular Uptake, and Three-Dimensional Spheroid Models” (Inorganic Chemistry, 2025):
Like-named read-outs stand apart in the source and are kept apart here.

What was measured:
[1] = test system: A2780 (ovarian) cancer cells; assay: MTT cytotoxicity assay, A2780; details: read-out: In Vitro Cytotoxicity IC50, A2780
Experimental: (§1) The cell lines were grown in culture bottles and incubated at a CO2 concentration of 5% and 37 °C.
(§2) Cell viability was investigated via the MTT [3-(4,5-dimethylthiazol-2-yl)-2,5-diphenyltetrazolium bromide] assay. This method consists of the capacity of enzymes present in living cells, especially in mitochondria, to reduce MTT to formazan, a purple-colored compound. […] For the assays, 1.5 × 10^4 cells/well were seeded in 96-well flat-bottom cell culture plates (KASVI). The plates were incubated for 24 h; then, different concentrations of the complexes were pipetted, and the plates were treated for an additional 48 h. To complete the treatment, 50 μL of MTT (1 mg/mL in PBS) was added to each well, followed by incubation for 3 h. The formazan crystals that formed were solubilized in isopropanol, and the absorbance was read with a microplate reader (BioTek, Epoch) at 540 nm. Cell viability (IC50) was assessed with GraphPad Prism 8.

[2] = test system: MRC-5 (lung) normal cells; assay: MTT cytotoxicity assay, MRC-5; details: read-out: In Vitro Cytotoxicity IC50, MRC-5; MTT, 48 h treatment
Experimental: as §1, §2

[3] = test system: MDA-MB-231 (breast) cancer cells; assay: MTT cytotoxicity assay, MDA-MB-231; details: read-out: In Vitro Cytotoxicity IC50, MDA-MB-231
Experimental: as §1, §2

[4] = test system: A2780cis (ovarian cisplatin-resistant) cancer cells; assay: MTT cytotoxicity assay, A2780cis; details: read-out: In Vitro Cytotoxicity IC50, A2780cis
Experimental: as §1, §2

A549 (lung) cancer cells = assay: MTT cytotoxicity assay, A549; details: read-out: In Vitro Cytotoxicity IC50, A549
Experimental: as §1, §2

[5] = test system: A2780 ovarian cancer cells; assay: Morphological assay (bright field, PI, DAPI/Green Plasma); assay type: cell-based, human; details: for DAPI and Green Plasma staining / propidium iodide fluorescence intensity: 48 h, 0.5 × IC50, IC50, 2 × IC50; for cell morphology: up to 48 h, mainly at higher concentrations
Experimental: For morphological analysis, A2780 cancer cells (0.3 × 10^5 cells/well) were added to a 12-well plate in RPMI medium. After 24 h, different concentrations of complexes 1 and 2 were introduced into the cells. Possible morphological changes were evaluated at 0 and 48 h using an inverted optical microscope (NIKON ECLIPSE TS100) coupled with a Motcam 1SP camera, with a 10× objective lens.
Additionally, 1.5 × 10^4 A2780 cells/well were plated in 96-well plates in RPMI medium for the fluorescence morphology experiments. After treatment for 48 h, 100 μL (1 μg mL^–1) of the fluorescent marker PI ([…]) was added. For the morphological assessment using the fluorescent markers DAPI (4′,6-diamidino-2-phenylindole dilactate) and Green Plasma (CellMask), the cells were fixed in methanol and 80 μL (1 μg mL^–1) portions of the markers were added. Images were taken using a CELENA microscope (Logos Biosystems).

A2780 cells = assay: Cellular uptake of ruthenium by HR-CS GFAAS; assay type: cell-based, human; details: 1 μM complex, 4 h
Experimental: Due to the higher cytotoxicity of complexes 1 and 2 against the A2780 cell line, experiments were performed to evaluate their cell internalization capacity. These studies are crucial to determine whether the complexes can efficiently penetrate the cell membrane and to correlate their antiproliferative effects with their uptake levels.[59] A2780 cells were exposed to complexes 1 and 2 (1 μM) over a period of 4 h, and the cellular uptake of ruthenium was quantified using graphite furnace atomic absorption spectrometry.
A2780 cancer cells (2 × 10^6 cells/plate) were seeded in Petri dishes. After 24 h, complexes 1 and 2 (1 μM) were added to the cells for 4 h. Subsequently, the RPMI medium was removed, and the cells were washed with phosphate-buffered saline (PBS), trypsinized, and counted. The ruthenium absorbance measurements were conducted with an Analytik Jena ContrAA 700 graphite furnace atomic absorption spectrometer (Jena, Germany), equipped with solid sampling tubes. The absorbance measurements were performed at 349.8945 nm, with the peak volume selected absorbance (PVSA) corresponding to three pixels. The heating program for the graphite furnace, used for the quantitative determination of ruthenium, is depicted in Table S4.[66] The analytical working solution of 50 mg L^–1 Ru was prepared by diluting standard solutions of 1000 mg L^–1 Ru (Specsol, São Paulo, Brazil) and acidifying with 0.5% (v/v) HNO3. To establish the calibration curve, appropriate aliquots of the analytical working solution were added to the atomizer to achieve concentrations of 0.1, 0.3, 0.6, 0.9, 1.2, and 1.5 ng of ruthenium. The cell suspension containing the internalized complexes was diluted with 500 μL of deionized water, acidified with 0.5% (v/v) HNO3, and homogenized using a vortex mixer (IKA model V1). For the determination of Ru by SS HR-CS GFAAS, 10 μL aliquots of the samples were transferred to the platform and introduced automatically into the graphite furnace, in which all measurements were carried out in triplicate.

A2780 tumor spheroids = assay: 3D tumor spheroids; assay type: cell-based, human
Experimental: In this experiment, the spheroids were monitored for 144 h after treatment with 1 at several concentrations (0.78–12.5 μM). […] As observed, at this concentration there is a decrease in the diameter, followed by stabilization, after treatment for 48 h. […] These findings underscore the necessity to refine in vitro methodologies to better elucidate the potential of novel compounds. Such improvements are crucial for increasing the likelihood of identifying critical insights early in the drug discovery and development process, thereby minimizing errors in subsequent stages. After treatment for 144 h, double staining with both DAPI and PI was performed.
In a 96-well Bioprint Kit [Magnetic 3D Cell Culture Technology (m3D)], the 3D culture experiment was carried out. Initially, to the A2780 cells was added 150 μL of a solution containing nanoparticles (NanoShuttle - PL). The A2780 cells were added to a 96-well repellent culture plate after 24 h. The resulting 1500 cells/well were placed under magnetic drives to form spheroids through the magnetic forces of the magnets. […] The formation of spheroids and their growth were monitored by a Digital Imaging System microscope (CELENA S, Logos Biosystems). Once the spheroids were formed, complex 1 at different concentrations (0.78, 1.56, 3.12, 6.25, and 12.5 μM) was added, and the effect of the compound on the spheroids was monitored for 144 h. […]

A2780 cancer cells = assay: Clonogenic survival assay; assay type: cell-based, human; details: 0.5 × IC50, 48 h treatment then 7 days
Experimental: The A2780 cancer cells were used for the clonogenic assay, in which a total of 400 cells/well were seeded in a six-well plate in RPMI medium, and after incubation for 24 h, different concentrations of complexes 1 and 2 were added. The plates containing the complexes were incubated (37 °C and 5% of CO2) for 48 h. The culture medium was replaced with fresh medium, and the system was incubated again for 7 days under the same condition. Thereafter, all culture media were removed from the plate, and the cells were washed with PBS and fixed with a 3:1 methanol/acetic acid mixture. Then the cells were colored with a 0.5% crystal violet solution in water for 30 min. Images were taken, and the colonies counted using ImageJ. The experiment was also carried out in triplicate.

in vitro = details: human
Experimental: as §1, §2

[6] = MTT cytotoxicity assay, MRC-5; details: human
Experimental: as §1, §2

Stability by 31P{1H} NMR = details: 48 h
Experimental: Furthermore, the stability of the complexes was studied via ^31P{^1H} NMR in DMSO and a DMSO/DMEM (Dulbecco’s modified Eagle’s medium) solution over 48 h. […] In the same way, stability assays were performed for the precursor cis-[RuCl2(bipy)(dppp)].

Structure (SMILES)	IC50 ([1]; MTT, 48 h treatment) [µM]	IC50 [2] [µM]	IC50 ([3]; MTT, 48 h treatment) [µM]	IC50 ([4]; MTT, 48 h treatment) [µM]	IC50 (A549 (lung) cancer cells; MTT, 48 h treatment) [µM]	IC50 ([1]; Homo sapiens, A2780, 48 h) [µM]	IC50 ([3]; Homo sapiens, MDA-MB-231, 48 h) [µM]	IC50 ([4]; Homo sapiens, A2780cis, 48 h) [µM]	IC50 (A549 (lung) cancer cells; Homo sapiens, A549, 48 h) [µM]	further results
Cc1c(Cl)cccc1Nc1ccccc1C1=[O+][Ru-4]23([O]1)([n+]1ccccc1-c1cccc[n+]12)[P+](c1ccccc1)(c1ccccc1)CCC[P+]3(c1ccccc1)c1ccccc1.F[P-](F)(F)(F)(F)F [complex 3, [Ru(TFen)(bipy)(dppp)]PF6]	2.25 ± 0.08	3.58 ± 0.02	3.71 ± 0.15	2.68 ± 0.26	8.74 ± 0.23					
F[P-](F)(F)(F)(F)F.c1ccc(Nc2ccccc2C2=[O+][Ru-4]34([O]2)([n+]2ccccc2-c2cccc[n+]23)[P+](c2ccccc2)(c2ccccc2)CCC[P+]4(c2ccccc2)c2ccccc2)cc1 [complex 1, [Ru(Fen)(bipy)(dppp)]PF6]	0.66 ± 0.04	2.47 ± 0.18	2.87 ± 0.11	0.96 ± 0.04	3.96 ± 0.4					DAPI and Green Plasma staining [5]: significant shortening of the plasma membrane, while the nucleus remained intact; propidium iodide fluorescence intensity [5]: significant increase in fluorescence intensity; cell morphology [5]: loss of adhesion and round cells are observed; Ru uptake percentage (A2780 cells): 3,6%; amount of ruthenium internalized by A2780 cells (A2780 cells): 20,8 ± 3,2 ng; concentration at which spheroid growth (diameter) was significantly compromised (A2780 tumor spheroids; 0.78–12.5 μM tested, monitored 144 h): 12.5 µM; PI fluorescence in spheroids (A2780 tumor spheroids; DAPI/PI double staining after 144 h): increase in the fluorescence intensity of the PI marker; effect on colony formation (A2780 cancer cells): significantly reduced both the number and size of colonies
FC(F)(F)c1cccc(Nc2ccccc2C2=[O+][Ru-4]34([O]2)([n+]2ccccc2-c2cccc[n+]23)[P+](c2ccccc2)(c2ccccc2)CCC[P+]4(c2ccccc2)c2ccccc2)c1.F[P-](F)(F)(F)(F)F [complex 4, [Ru(FFen)(bipy)(dppp)]PF6]	2.14 ± 0.11	4.36 ± 0.19	2.34 ± 0.14	4.25 ± 0.11	6.87 ± 0.35					
O=C(O)c1ccccc1Nc1cccc(C(F)(F)F)c1 [HMFFe, flufenamic acid]						> 100	> 100	> 100	> 100	IC50 at 48 h (in vitro): > 100 µM
Cc1cccc(Nc2ccccc2C2=[O+][Ru-4]34([O]2)([n+]2ccccc2-c2cccc[n+]23)[P+](c2ccccc2)(c2ccccc2)CCC[P+]4(c2ccccc2)c2ccccc2)c1C.F[P-](F)(F)(F)(F)F [complex 2, [Ru(MFen)(bipy)(dppp)]PF6]	0.91 ± 0.06	2.33 ± 0.04	3.99 ± 0.21	1.11 ± 0.06	4.57 ± 0.08					DAPI and Green Plasma staining [5]: significant shortening of the plasma membrane, while the nucleus remained intact; propidium iodide fluorescence intensity [5]: significant increase in fluorescence intensity; cell morphology [5]: loss of adhesion and round cells are observed; Ru uptake percentage (A2780 cells): 4,5%; amount of ruthenium internalized by A2780 cells (A2780 cells): 26,0 ± 1,9 ng; effect on colony formation (A2780 cancer cells): significantly reduced both the number and size of colonies
c1ccc(P(CCCP(c2ccccc2)c2ccccc2)c2ccccc2)cc1 [Dppp, 1,3-bis(diphenylphosphino)propane]						> 100	> 100	> 100	> 100	IC50 at 48 h (in vitro): > 100 µM
Cc1c(Cl)cccc1Nc1ccccc1C(=O)O [HMTFe, tolfenamic acid]						> 100	> 100	> 100	> 100	IC50 at 48 h [6]: > 100 µM
[Cl][Ru-4]12([Cl])([n+]3ccccc3-c3cccc[n+]31)[P+](c1ccccc1)(c1ccccc1)CCC[P+]2(c1ccccc1)c1ccccc1 [[RuCl2(bipy)(dppp)], cis-[RuCl2(bipy)(dppp)]]	28 ± 0.81	40.9 ± 1.76	26.1 ± 4.84	35.6 ± 1.7	> 50					stability in DMSO (Stability by 31P{1H} NMR): new signals are observed at ∼40 ppm; stability in DMSO/DMEM solution (Stability by 31P{1H} NMR): two other doublets with chemical shifts at ∼33 and ∼46 ppm
c1ccc(-c2ccccn2)nc1 [Bipy, 2,2′-bipyridine]						> 100	> 100	> 100	> 100	IC50 at 48 h ([6]; MRC-5 normal lung cells): > 100 µM
O=C(O)c1ccccc1Nc1ccccc1 [HFe, fenamic acid]						> 100	> 100	> 100	> 100	IC50 at 48 h [6]: > 100 µM
Cc1cccc(Nc2ccccc2C(=O)O)c1C [HMFe, mefenamic acid]						> 100	> 100	> 100	> 100	IC50 at 48 h [6]: > 100 µM
